This passage reports IC50 and viability, T/C results from PubChem BioAssay AID2060616 (Molecular Pharmacology Branch, DTP, NCI, 2025).

SMILES strings stand for the structures. Several values for one entry are separate records, joined by “and”; a condition that tells them apart may be missing. Equal values may be shown once.

The test deals with 377384-186-R-J1-PDC complex spheroid viability. The experiment in a line: Anticancer human tumor 377384-186-R-J1-PDC patient-derived pancreatic carcinoma cell line growth inhibition [CLK]. Particulars: for viability, T/C: stronger effect = lower value. Summed up: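 Patient-derived tumor cells grown as complex spheroids with HUVEC endothelial cells and mesenchymal stem cells, treated with drug combinations. Concentrations descend in half-log steps from near clinical Cmax, or from 10 microM if Cmax unknown.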

Setting [1] is: curve of first compound, second compound 0.0316 µM.
Setting [2] is: curve of first compound, second compound 0.1 µM.
Setting [3] is: curve of first compound, second compound 0.316 µM.
Setting [4] is: curve of first compound, second compound 1 µM.
[5] abbreviates: curve of first compound, second compound 3.16 µM.
The mark [6] stands for this setting: curve of first compound, second compound 10 µM.
Setting [7] is: second compound 0.0316 µM, first compound 0.0316 µM.
[8] abbreviates: second compound 0.0316 µM, first compound 0.1 µM.
[9] abbreviates: second compound 0.1 µM, first compound 0.0316 µM.
Setting [10] is: second compound 0.1 µM, first compound 0.1 µM.
[11] abbreviates: second compound 0.316 µM, first compound 0.0316 µM.
Where [12] appears, read: second compound 0.316 µM, first compound 0.1 µM.
Setting [13] is: second compound 1 µM, first compound 0.0316 µM.
The mark [14] stands for this setting: second compound 1 µM, first compound 0.1 µM.
The mark [15] stands for this setting: second compound 3.16 µM, first compound 0.0316 µM.
The mark [16] stands for this setting: second compound 3.16 µM, first compound 0.1 µM.
Where [17] appears, read: second compound 10 µM, first compound 0.0316 µM.
[18] abbreviates: second compound 10 µM, first compound 0.1 µM.
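Also: spheroids exposed to agents for 7 days before reading.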
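For viability, T/C in this document: luminescence signal used as a stand-in for viable cells.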

For the compound `Cn1ncnc1[C@H]1c2n[nH]c(=O)c3cc(F)cc(c23)N[C@@H]1c1ccc(F)cc1` + CNC(=O)c1ccc(Nc2nc(OC3CCCC3)c3c(-c4ccc5nc(C)oc5c4)c[nH]c3n2)c(OC)c1, the IC50 (in general, the point on the concentration scale where inhibition reaches its midpoint) is over 100 nM under setting [1]; under 0.316 nM under setting [2]; under 0.316 nM under setting [3]; under 0.316 nM under setting [4]; under 0.316 nM under setting [5]; under 0.316 nM under setting [6]. In addition, the viability, T/C (in general, the ratio of treated to control) runs as follows: (second compound 0.0316 µM, first compound 0.000316 µM) 91.7%; (second compound 0.0316 µM, first compound 0.001 µM) 87.6%; (second compound 0.0316 µM, first compound 0.00316 µM) 61.8%; (second compound 0.0316 µM, first compound 0.01 µM) 56.3%; under setting [7], 53.6%; under setting [8], 48.8%. Moreover, the viability, T/C runs as follows: (second compound 0.1 µM, first compound 0.000316 µM) 48.7%; (second compound 0.1 µM, first compound 0.001 µM) 42.7%; (second compound 0.1 µM, first compound 0.00316 µM) 36.5%; (second compound 0.1 µM, first compound 0.01 µM) 39%; under setting [9], 34.3%; under setting [10], 28.7%. Besides, the viability, T/C (second compound 0.316 µM, first compound 0.000316 µM) is 16.8%; the viability, T/C (second compound 0.316 µM, first compound 0.001 µM) is 18.2%; the viability, T/C (second compound 0.316 µM, first compound 0.00316 µM) was 19.2%; the viability, T/C (second compound 0.316 µM, first compound 0.01 µM) was 17.4%; the viability, T/C under setting [11] was 16%; the viability, T/C under setting [12] is 14.9%. Also, the viability, T/C is 21.5% (second compound 1 µM, first compound 0.000316 µM); 18.2% (second compound 1 µM, first compound 0.001 µM); 17.6% (second compound 1 µM, first compound 0.00316 µM); 15.9% (second compound 1 µM, first compound 0.01 µM); 15.6% under setting [13]; 15.6% under setting [14]. Also, the viability, T/C (second compound 3.16 µM, first compound 0.000316 µM) was 16.9%; the viability, T/C (second compound 3.16 µM, first compound 0.001 µM) was 18.6%; the viability, T/C (second compound 3.16 µM, first compound 0.00316 µM) is 17.3%; the viability, T/C (second compound 3.16 µM, first compound 0.01 µM) is 20%; the viability, T/C under setting [15] was 15.6%; the viability, T/C under setting [16] was 15.3%. The viability, T/C (second compound 10 µM, first compound 0.000316 µM) was 18.7%; the viability, T/C (second compound 10 µM, first compound 0.001 µM) is 17.5%; the viability, T/C (second compound 10 µM, first compound 0.00316 µM) is 20.7%; the viability, T/C (second compound 10 µM, first compound 0.01 µM) was 16.4%; the viability, T/C under setting [17] is 18.5%; the viability, T/C under setting [18] is 14.8%.

Turning to `CN1CCN(c2cc(C(=O)Nc3cc4cc(-c5cnn(C)c5)ccc4cn3)ccn2)CC1`, the viability, T/C (compound 0.0316 µM) was 102% [middle of 12 runs]; the viability, T/C (compound 0.1 µM) is 103% [middle of 12 runs]; the viability, T/C (compound 0.316 µM) was 25.7% [middle of 12 runs]; the viability, T/C (compound 1 µM) was 1.33% [middle of 12 runs]; the viability, T/C (compound 3.16 µM) is 0.96% [middle of 11 runs]; the viability, T/C (compound 10 µM) was 0.49% [middle of 11 runs]. For the same compound, the IC50 (compound alone, run of 07/31/2023) is 220 nM [middle of 9 runs].

As for `Cn1ncnc1[C@H]1c2n[nH]c(=O)c3cc(F)cc(c23)N[C@@H]1c1ccc(F)cc1`, the viability, T/C reads like this: (compound 0.000316 µM) 86.8% and 87.2%; (compound 0.001 µM) 73.7% and 74.4%; (compound 0.00316 µM) 62.4% and 66.9%; (compound 0.01 µM) 57.6% and 62.5%; (compound 0.0316 µM) 53.4% and 47.6%; (compound 0.1 µM) 41.8% and 43.1%. Where the note is “curve of compound”, the half-inhibitory concentration (IC50) is 30.7 nM and 33.4 nM.

As for `CC(=O)O[C@H]1C(=O)[C@@]2(C)[C@H]([C@H](OC(=O)c3ccccc3)[C@]3(O)C[C@H](OC(=O)[C@H](O)[C@@H](NC(=O)c4ccccc4)c4ccccc4)C(C)=C1C3(C)C)[C@]1(OC(C)=O)CO[C@@H]1C[C@@H]2O` + CN1CCN(c2cc(C(=O)Nc3cc4cc(-c5cnn(C)c5)ccc4cn3)ccn2)CC1, the IC50 reads like this: under setting [1], under 31.6 nM; under setting [2], under 31.6 nM; under setting [3], under 31.6 nM; under setting [4], under 31.6 nM; under setting [5], under 31.6 nM; under setting [6], under 31.6 nM. Moreover, the viability, T/C was 9.18% under setting [7]; 9.07% under setting [8]; 7.15% (second compound 0.0316 µM, first compound 0.316 µM); 8.23% (second compound 0.0316 µM, first compound 1 µM); 10.1% (second compound 0.0316 µM, first compound 3.16 µM); 14.8% (second compound 0.0316 µM, first compound 10 µM). Also, the viability, T/C is, setting by setting: under setting [9], 7.97%; under setting [10], 9.15%; (second compound 0.1 µM, first compound 0.316 µM) 10.9%; (second compound 0.1 µM, first compound 1 µM) 10.7%; (second compound 0.1 µM, first compound 3.16 µM) 8.46%; (second compound 0.1 µM, first compound 10 µM) 15.1%. In addition, the viability, T/C was 9.05% under setting [11]; 9.91% under setting [12]; 10.6% (second compound 0.316 µM, first compound 0.316 µM); 11.4% (second compound 0.316 µM, first compound 1 µM); 15.1% (second compound 0.316 µM, first compound 3.16 µM); 14.1% (second compound 0.316 µM, first compound 10 µM). Besides, the viability, T/C was 0.76% under setting [13]; 0.53% under setting [14]; 1.35% (second compound 1 µM, first compound 0.316 µM); 0.93% (second compound 1 µM, first compound 1 µM); 0.78% (second compound 1 µM, first compound 3.16 µM); 1.13% (second compound 1 µM, first compound 10 µM). For the same compound, the viability, T/C is 0.39% under setting [15]; 0.51% under setting [16]; 0.58% (second compound 3.16 µM, first compound 0.316 µM); 0.7% (second compound 3.16 µM, first compound 1 µM); 1.32% (second compound 3.16 µM, first compound 3.16 µM); 2.27% (second compound 3.16 µM, first compound 10 µM). In addition, the viability, T/C runs as follows: under setting [17], 0.34%; under setting [18], 0.28%; (second compound 10 µM, first compound 0.316 µM) 0.49%; (second compound 10 µM, first compound 1 µM) 0.48%; (second compound 10 µM, first compound 3.16 µM) 0.4%; (second compound 10 µM, first compound 10 µM) 0.37%.

As to `CC1(C)CCC(CN2CCN(c3ccc(C(=O)NS(=O)(=O)c4ccc(NCC5CCOCC5)c([N+](=O)[O-])c4)c(Oc4cnc5[nH]ccc5c4)c3)CC2)=C(c2ccc(Cl)cc2)C1`, the viability, T/C was 83.6% and 106% (compound 0.0316 µM); 86.1% and 92.5% (compound 0.1 µM); 92.9% and 90.5% (compound 0.316 µM); 99% and 97% (compound 1 µM); 82.7% and 83.9% (compound 3.16 µM). Moreover, under “curve of compound”, the IC50 is 5200 nM and > 10000 nM.
